# Measured values taken from paper PMC4445529, “Small molecule inhibition of group I p21-activated kinases in breast cancer induces apoptosis and potentiates the activity of microtubule stabilizing agents” (Breast Cancer Research : BCR, 2015).
# Biological target: T1, PAK4 (Homo sapiens, UniProt O96013)
# T1 construct: kinase domain
# Assay: Z'-LYTE FRET peptide kinase assay with recombinant enzyme
# Assay type: biochemical
# T1 sequence (O96013 291-591 limits assumed): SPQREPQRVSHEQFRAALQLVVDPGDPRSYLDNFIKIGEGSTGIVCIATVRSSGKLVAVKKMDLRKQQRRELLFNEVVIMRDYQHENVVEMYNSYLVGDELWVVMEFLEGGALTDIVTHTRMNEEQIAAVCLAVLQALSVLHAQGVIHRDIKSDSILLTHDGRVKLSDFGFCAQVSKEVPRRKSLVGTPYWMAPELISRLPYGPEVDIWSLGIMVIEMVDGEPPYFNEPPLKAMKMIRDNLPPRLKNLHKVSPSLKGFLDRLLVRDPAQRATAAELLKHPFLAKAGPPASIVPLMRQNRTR
structure (smiles),measurement,value
CCn1c(=O)c(-c2ccc(-c3cncc(C)n3)cc2Cl)cc2cnc(NCCC3CCN(C)CC3)nc21 [FRAX1036],Ki,2.4 µM
